compound: Cc1ccc2nc(NCCN)c3ncc(C)n3c2c1 + COc1cccc2cc(-c3nc([C@H]4CC[C@H](C(=O)O)CC4)n4ncnc(N)c34)[nH]c12 [OSI-027] (partner 0.5 µM); experiment: relative viability (nuclei count vs DMSO), 5 days (fraction); higher = more cells survive; conditions: first compound 0.04 µM
How it was run: (§1)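 Relative viability equals treated-well nuclei counts divided by vehicle-well nuclei counts. Counts came from 4× images of lung cancer cell lines grown in 1536-well plates for 5 days after pin-tool dosing on the day after seeding. Dosing used one drug alone or a fixed anchor-drug dose plus five library-drug doses (not always all listed) in √10 steps, and values are medians of duplicate plates.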

Cell Line | relative viability
HARA | 0.488
SW 900 | 0.453
HCC-78 | 0.417
NCI-H322M | 0.641
LCLC-97TM1 | 0.592
NCI-H2009 | 0.764
A-427 | 0.499
NCI-H441 | 0.615
NCI-H661 | 0.808
NCI-H1734 | 0.619
NCI-H460 | 0.674
NCI-H2347 | 0.373
SK-LU-1 | 0.371
NCI-H1395 | 0.672
201T | 0.863
NCI-H1915 | 0.641
HCC-827 | 0.802

Cell Line | relative viability
LXF-289 | 0.898
NCI-H23 | 0.828
NCI-H647 | 0.566
CAL-12T | 0.798
NCI-H1651 | 0.787
EPLC-272H | 0.366
NCI-H2228 | 0.589
NCI-H1792 | 0.683
NCI-H1355 | 0.447
NCI-H3122 | 1.06
NCI-H1437 | 1
NCI-H1755 | 0.77
NCI-H2023 | 0.51
HCC-15 | 0.708
PC-14 | 0.882
EKVX | 0.754

same assay, conditions: first compound 0.1265 µM

Cell Line | relative viability
HARA | 0.505
SW 900 | 0.661
HCC-78 | 0.421
NCI-H322M | 0.544
LCLC-97TM1 | 0.463
NCI-H2009 | 0.668
A-427 | 0.408
NCI-H441 | 0.785
NCI-H661 | 0.713
NCI-H1734 | 0.557
NCI-H460 | 0.598
NCI-H2347 | 0.503
SK-LU-1 | 0.369
NCI-H1395 | 0.67
201T | 0.586
NCI-H1915 | 0.605
HCC-827 | 0.779

Cell Line | relative viability
LXF-289 | 0.79
NCI-H23 | 0.709
NCI-H647 | 0.607
CAL-12T | 0.572
NCI-H1651 | 0.708
EPLC-272H | 0.296
NCI-H2228 | 0.656
NCI-H1792 | 0.756
NCI-H1355 | 0.447
NCI-H3122 | 0.953
NCI-H1437 | 0.871
NCI-H1755 | 0.738
NCI-H2023 | 0.387
HCC-15 | 0.807
PC-14 | 0.819
EKVX | 0.688

same assay, conditions: first compound 0.4 µM

Cell Line | relative viability
HARA | 0.233
HCC-78 | 0.371
NCI-H322M | 0.481
LCLC-97TM1 | 0.452
NCI-H2009 | 0.722
A-427 | 0.488
NCI-H441 | 0.684
NCI-H661 | 0.732
NCI-H1734 | 0.502
NCI-H460 | 0.67
NCI-H2347 | 0.386
SK-LU-1 | 0.376
NCI-H1395 | 0.558
201T | 0.761
HCC-827 | 0.873
LXF-289 | 0.901

Cell Line | relative viability
NCI-H23 | 0.54
NCI-H647 | 0.637
CAL-12T | 0.824
NCI-H1651 | 0.681
EPLC-272H | 0.32
NCI-H2228 | 0.617
NCI-H1792 | 0.707
NCI-H1355 | 0.335
NCI-H3122 | 0.858
NCI-H1437 | 0.886
NCI-H1755 | 0.718
NCI-H2023 | 0.489
HCC-15 | 0.544
PC-14 | 0.979
EKVX | 0.658

same assay, conditions: first compound 1.265 µM

Cell Line | relative viability
HARA | 0.459
SW 900 | 0.465
HCC-78 | 0.341
NCI-H322M | 0.568
LCLC-97TM1 | 0.828
NCI-H2009 | 0.632
A-427 | 0.49
NCI-H441 | 0.654
NCI-H661 | 0.82
NCI-H1734 | 0.551
NCI-H460 | 0.718
NCI-H2347 | 0.425
SK-LU-1 | 0.376
NCI-H1395 | 0.767
201T | 0.805
NCI-H1915 | 0.696
HCC-827 | 0.841

Cell Line | relative viability
LXF-289 | 0.872
NCI-H23 | 0.607
NCI-H647 | 0.634
CAL-12T | 0.76
NCI-H1651 | 0.613
EPLC-272H | 0.346
NCI-H2228 | 0.59
NCI-H1792 | 0.704
NCI-H1355 | 0.384
NCI-H3122 | 0.828
NCI-H1437 | 0.879
NCI-H1755 | 0.72
NCI-H2023 | 0.453
HCC-15 | 0.659
PC-14 | 0.759
EKVX | 0.71

same assay, conditions: first compound 4 µM

Cell Line | relative viability
HARA | 0.553
SW 900 | 0.553
HCC-78 | 0.337
NCI-H322M | 0.526
LCLC-97TM1 | 0.437
NCI-H2009 | 0.525
A-427 | 0.451
NCI-H441 | 0.581
NCI-H661 | 0.693
NCI-H1734 | 0.543
NCI-H460 | 0.537
NCI-H2347 | 0.223
SK-LU-1 | 0.361
NCI-H1395 | 0.655
201T | 0.64
NCI-H1915 | 0.594
HCC-827 | 0.736

Cell Line | relative viability
LXF-289 | 0.776
NCI-H23 | 0.531
NCI-H647 | 0.719
CAL-12T | 0.52
NCI-H1651 | 0.604
EPLC-272H | 0.317
NCI-H2228 | 0.719
NCI-H1792 | 0.638
NCI-H1355 | 0.404
NCI-H3122 | 0.678
NCI-H1437 | 0.884
NCI-H1755 | 0.655
NCI-H2023 | 0.369
HCC-15 | 0.581
PC-14 | 0.388
EKVX | 0.617

compound: Cc1ccc2nc(NCCN)c3ncc(C)n3c2c1 + N=C(N)NC(=N)NCCc1ccccc1 [Phenformin] (partner 250 µM); experiment: as above; conditions: first compound 0.04 µM
How it was run: as §1

Cell Line | relative viability
HARA | 0.437
SW 900 | 0.594
HCC-78 | 0.81
NCI-H322M | 0.882
LCLC-97TM1 | 0.38
NCI-H2009 | 0.514
A-427 | 0.388
NCI-H441 | 0.791
NCI-H661 | 0.26
NCI-H1734 | 0.425
NCI-H460 | 0.515
NCI-H2347 | 0.521
SK-LU-1 | 0.649
NCI-H1395 | 0.45
201T | 0.46
NCI-H1915 | 0.359
HCC-827 | 0.409

Cell Line | relative viability
LXF-289 | 0.528
NCI-H23 | 0.797
NCI-H647 | 0.758
CAL-12T | 0.567
NCI-H1651 | 0.351
EPLC-272H | 0.317
NCI-H2228 | 0.29
NCI-H1792 | 0.308
NCI-H1355 | 0.484
NCI-H3122 | 0.411
NCI-H1437 | 0.289
NCI-H1755 | 0.661
NCI-H2023 | 0.466
HCC-15 | 0.464
PC-14 | 0.535
EKVX | 0.25

same assay, conditions: first compound 0.1265 µM

Cell Line | relative viability
HARA | 0.449
SW 900 | 0.6
HCC-78 | 0.694
NCI-H322M | 0.701
LCLC-97TM1 | 0.427
NCI-H2009 | 0.399
A-427 | 0.308
NCI-H441 | 0.85
NCI-H661 | 0.375
NCI-H1734 | 0.417
NCI-H460 | 0.512
NCI-H2347 | 0.55
SK-LU-1 | 0.568
NCI-H1395 | 0.498
201T | 0.417
NCI-H1915 | 0.384
HCC-827 | 0.402

Cell Line | relative viability
LXF-289 | 0.546
NCI-H23 | 0.858
NCI-H647 | 0.533
CAL-12T | 0.491
NCI-H1651 | 0.273
EPLC-272H | 0.397
NCI-H2228 | 0.525
NCI-H1792 | 0.436
NCI-H1355 | 0.476
NCI-H3122 | 0.379
NCI-H1437 | 0.298
NCI-H1755 | 0.665
NCI-H2023 | 0.409
HCC-15 | 0.501
PC-14 | 0.69
EKVX | 0.236

same assay, conditions: first compound 0.4 µM

Cell Line | relative viability
HARA | 0.388
HCC-78 | 0.71
NCI-H322M | 0.767
LCLC-97TM1 | 0.435
NCI-H2009 | 0.489
A-427 | 0.35
NCI-H441 | 0.922
NCI-H661 | 0.254
NCI-H1734 | 0.355
NCI-H460 | 0.525
NCI-H2347 | 0.513
SK-LU-1 | 0.614
NCI-H1395 | 0.412
201T | 0.452
HCC-827 | 0.401
LXF-289 | 0.543
NCI-H23 | 0.704
NCI-H647 | 0.494
CAL-12T | 0.536
NCI-H1651 | 0.315
EPLC-272H | 0.383
NCI-H2228 | 0.452
NCI-H1355 | 0.441
NCI-H3122 | 0.399
NCI-H1437 | 0.327
NCI-H1755 | 0.581
NCI-H2023 | 0.434
HCC-15 | 0.48
PC-14 | 0.431
EKVX | 0.241

same assay, conditions: first compound 1.265 µM

Cell Line | relative viability
HARA | 0.342
SW 900 | 0.674
HCC-78 | 0.697
NCI-H322M | 0.798
LCLC-97TM1 | 0.465
NCI-H2009 | 0.401
A-427 | 0.265
NCI-H441 | 0.923
NCI-H661 | 0.293
NCI-H1734 | 0.38
NCI-H460 | 0.539
NCI-H2347 | 0.345
SK-LU-1 | 0.553
NCI-H1395 | 0.419
201T | 0.465
NCI-H1915 | 0.377
HCC-827 | 0.39

Cell Line | relative viability
LXF-289 | 0.486
NCI-H23 | 0.786
NCI-H647 | 0.539
CAL-12T | 0.59
NCI-H1651 | 0.358
EPLC-272H | 0.373
NCI-H2228 | 0.284
NCI-H1792 | 0.411
NCI-H1355 | 0.391
NCI-H3122 | 0.36
NCI-H1437 | 0.298
NCI-H1755 | 0.625
NCI-H2023 | 0.437
HCC-15 | 0.429
PC-14 | 0.607
EKVX | 0.239

same assay, conditions: first compound 4 µM

Cell Line | relative viability
HARA | 0.453
SW 900 | 0.849
HCC-78 | 0.601
NCI-H322M | 0.759
LCLC-97TM1 | 0.435
NCI-H2009 | 0.393
A-427 | 0.296
NCI-H441 | 0.769
NCI-H661 | 0.308
NCI-H1734 | 0.389
NCI-H460 | 0.394
NCI-H2347 | 0.417
SK-LU-1 | 0.43
NCI-H1395 | 0.46
201T | 0.453
NCI-H1915 | 0.359
HCC-827 | 0.384

Cell Line | relative viability
LXF-289 | 0.524
NCI-H23 | 0.754
NCI-H647 | 0.476
CAL-12T | 0.542
NCI-H1651 | 0.352
EPLC-272H | 0.294
NCI-H2228 | 0.244
NCI-H1792 | 0.358
NCI-H1355 | 0.42
NCI-H3122 | 0.288
NCI-H1437 | 0.278
NCI-H1755 | 0.583
NCI-H2023 | 0.349
HCC-15 | 0.379
PC-14 | 0.254
EKVX | 0.248

compound: Cc1ccc2nc(NCCN)c3ncc(C)n3c2c1 + CC(=O)c1c(C)c2cnc(Nc3ccc(N4CCNCC4)cn3)nc2n(C2CCCC2)c1=O [Palbociclib] (partner 0.5 µM); experiment: as above; conditions: first compound 0.04 µM
How it was run: as §1

Cell Line | relative viability
HARA | 0.2
